Experimental data reported in ChEMBL document CHEMBL6103551 (Bioorg Med Chem Lett, 2025).

Settings: mouse, microsomes, 1 h
Description: Metabolic stability in mouse liver microsomes assessed as reduction in NADPH incubated for 60 mins by fluorescence based assay relative to control

Stability: Stable
SMILES: CCOC(=O)N1CCC(NC(=S)Nc2cc(Cl)cc(Cl)c2)CC1
